Read-outs that look alike come from different tables or passages of the source.
Tests used:
wild type NTRK1 enzyme = biological target: T1, wild type NTRK1 enzyme (Homo sapiens, UniProt P04629); test: NTRK1 Wild Type Assay at 1 mM ATP; format: biochemical; settings: 1 mM ATP; read-out: Enz NTRK1 IC50
T1 construct: purchased BPS Bioscience 40280
Description: NTRK1 Wild Type Assay at 1 mM ATP
The reaction was stopped by the addition of 70 μL of Stop buffer (100 mM HEPES pH 7.5, 0.015% Brij 35, 35 mM EDTA and 0.2% of Coating Reagent 3 (Caliper Lifesciences)). The plate was then read on a Caliper EZReader 2 (protocol settings: −1.7 psi, upstream voltage −500, downstream voltage −3000, post sample sip 35s).

[1] = test system: KM12 wild type colon carcinoma cell line harboring the TPM3-NTRK1 fusion protein; test: NTRK wild type cellular assay (CellTiter-Glo growth inhibition); format: cell-based; settings: 72 hr, CellTiter-Glo, read-out: KM12 (WT) IC50
Summary of the method: (§1)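 KM12 (TPM3-NTRK1 fusion) or KM12 Cliff (G595R) cells at 1000 cells/well in 10% FBS media were dosed with compounds at varying concentrations in duplicate after overnight plating.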

[2] = test system: KM12 Cliff (G595R) cell line; test: NTRK G595R mutant cellular assay (CellTiter-Glo growth inhibition); format: cell-based; settings: 72 hr, CellTiter-Glo
Summary of the method: as §1

T1 sequence (P04629 440-796 limits assumed): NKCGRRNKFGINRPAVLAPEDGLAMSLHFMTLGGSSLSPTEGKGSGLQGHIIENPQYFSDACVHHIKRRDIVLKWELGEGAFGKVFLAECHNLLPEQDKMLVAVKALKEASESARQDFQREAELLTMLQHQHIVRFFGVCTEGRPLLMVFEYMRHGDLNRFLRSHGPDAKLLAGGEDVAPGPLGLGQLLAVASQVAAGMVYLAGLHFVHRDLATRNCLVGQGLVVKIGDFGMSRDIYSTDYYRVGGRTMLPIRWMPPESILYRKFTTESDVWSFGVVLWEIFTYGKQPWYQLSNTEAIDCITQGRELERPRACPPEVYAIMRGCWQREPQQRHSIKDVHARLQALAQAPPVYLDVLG

SMILES	IC50 (wild type NTRK1 enzyme) [nM]	IC50 [1] [nM]	IC50 ([1]; Homo sapiens, KM12, 72 h) [nM]	IC50 [2] [nM]	IC50 ([2]; Homo sapiens, KM12, 72 h) [nM]
O=C(c1n[nH]c2ncnc(N[C@@H]3C=C[C@@H](O)[C@H]3O)c12)N1C[C@@H](F)C[C@@H]1c1cc(F)cc(Cl)c1 [Compound 192]	< 10	10 to 100		10 to 100	
O=C(c1n[nH]c2ncnc(NC3CCCC(O)C3O)c12)N1CC(F)CC1c1cccc(F)c1F (stereo not drawn) [Compound 193]	< 10	10 to 100		10 to 100	
O=C(c1n[nH]c2ncnc(N[C@@H]3C=C[C@@H](O)[C@H]3O)c12)N1C[C@@H](F)C[C@@H]1c1cc(F)cnc1Cl [Compound 194]	10 to 100	10 to 100		10 to 100	
O=C(c1n[nH]c2ncnc(N[C@@H]3CC[C@@H](O)[C@H]3O)c12)N1C[C@@H](F)C[C@@H]1c1cc(F)ccc1Cl [Compound 195]	< 10		< 10		< 10
O=C(c1n[nH]c2ncnc(N[C@@H]3CCOC[C@H]3O)c12)N1C[C@@H](F)C[C@@H]1c1cc(F)ccc1Cl [Compound 196]	< 10		< 10		< 10
O=C(c1n[nH]c2ncnc(N[C@@H]3COC[C@@H](O)[C@H]3O)c12)N1C[C@@H](F)C[C@@H]1c1cc(F)cc(F)c1 [Compound 197]	< 10		10 to 100		10 to 100
O=C(c1n[nH]c2ncnc(NC3CCOCC3O)c12)N1CC(F)CC1c1cc(F)cc(Cl)c1 (stereo not drawn) [Compound 198]	< 10	< 10		< 10	
O=C(c1n[nH]c2ncnc(N[C@@H]3CCOC[C@H]3O)c12)N1C[C@@H](F)C[C@@H]1c1cc(Cl)ccc1F [Compound 200]	< 10		10 to 100		10 to 100
O=C(c1n[nH]c2ncnc(N[C@@H]3CC[C@@H](O)[C@H]3O)c12)N1C[C@@H](F)C[C@@H]1c1cc(Cl)ccc1F [Compound 201]	< 10	< 10		< 10	
O=C(c1n[nH]c2ncnc(N[C@@H]3C[C@@H](C(F)F)C[C@H]3O)c12)N1C[C@@H](F)C[C@@H]1c1cncc(F)c1 [Compound 203]	< 10		< 10		< 10
O=C(c1n[nH]c2ncnc(N[C@@H]3CC[C@@H](O)[C@H]3O)c12)N1C[C@@H](F)C[C@@H]1c1cc(F)cc(F)c1F [Compound 206]	< 10	< 10		< 10	
O=C(c1n[nH]c2ncnc(NC3CC(F)CC3O)c12)N1CC(F)CC1c1cc(F)cc(F)c1F (stereo not drawn) [Compound 208]	< 10		< 10		< 10
N#C[C@H]1C[C@@H](O)[C@H](Nc2ncnc3[nH]nc(C(=O)N4C[C@@H](F)C[C@@H]4c4cc(F)cc(F)c4F)c23)C1 [Compound 212]	< 10	< 10		< 10	
O=C(c1n[nH]c2ncnc(N[C@H]3[C@H](O)[C@H](O)[C@@H]4C[C@@H]43)c12)N1C[C@@H](F)C[C@@H]1c1cc(F)ccc1Cl [Compound 213]	< 10		< 10		< 10
O=C(c1n[nH]c2ncnc(N[C@H]3[C@H](O)[C@H](O)[C@@H]4C[C@@H]43)c12)N1C[C@@H](F)C[C@@H]1c1cc(F)cc(Cl)c1 [Compound 214]	< 10		< 10		< 10
O=C(c1n[nH]c2ncnc(N[C@H]3[C@H](O)[C@H](O)[C@@H]4C[C@@H]43)c12)N1C[C@@H](F)C[C@@H]1c1cc(Cl)ccc1F [Compound 215]	< 10	< 10		< 10	
O=C(c1n[nH]c2ncnc(N[C@H]3[C@H](O)[C@H](O)[C@@H]4C[C@@H]43)c12)N1C[C@@H](F)C[C@@H]1c1cc(F)cnc1F [Compound 216]	< 10	< 10		< 10	
O=C(c1n[nH]c2ncnc(NC3CCCC(O)C3O)c12)N1CC(F)CC1c1cc(F)ccc1Cl (stereo not drawn) [Compound 217]	< 10	< 10		< 10	
COc1c(F)cc(F)cc1[C@H]1C[C@H](F)CN1C(=O)c1n[nH]c2ncnc(N[C@@H]3CC[C@@H](O)[C@H]3O)c12 [Compound 219]	< 10	< 10		< 10	
O=C(c1n[nH]c2ncnc(N[C@H]3[C@H](O)[C@H](O)[C@@H]4C[C@@H]43)c12)N1C[C@@H](F)C[C@@H]1c1cc(F)cc(F)c1F [Compound 220]	< 10	< 10		< 10	
O=C(c1n[nH]c2ncnc(N[C@@H]3CCC[C@@H](O)[C@H]3O)c12)N1C[C@@H](F)C[C@@H]1c1cc(Cl)ccc1F [Compound 221]	< 10		< 10		< 10
O=C(c1n[nH]c2ncnc(NC3COCC(O)C3O)c12)N1CC(F)CC1c1cc(F)cc(Cl)c1 (stereo not drawn) [Compound 223]	< 10	10 to 100		10 to 100	
O=C(c1n[nH]c2ncnc(NC3CCCC(F)(F)[C@H]3O)c12)N1C[C@@H](F)C[C@@H]1c1cc(F)ccc1F (stereo partly drawn) [Compound 225]	< 10	10 to 100		10 to 100	
O=C(c1n[nH]c2ncnc(N[C@@H]3C[C@@H](C(F)F)C[C@H]3O)c12)N1C[C@@H](F)C[C@@H]1c1cc(F)ccc1F [Compound 226, (4-(((1R,2R,4R)-4-(difluoromethyl)-2-hydroxycyclopentyl)amino)-1H-pyrazolo[3,4-d]pyrimidin-3-yl)((2R,4S)-2-(2,5-difluorophenyl)-4-fluoropyrrolidin-1-yl)methanone]	< 10		< 10		< 10
O=C(c1n[nH]c2ncnc(N[C@@H]3CC(F)(F)[C@@H](O)[C@H]3O)c12)N1C[C@@H](F)C[C@@H]1c1cc(F)ccc1F [Compound 227]	< 10	< 10		< 10	
CN(Cc1cc(F)ccc1OC(F)(F)F)C(=O)c1n[nH]c2ncnc(NC3COCC(O)C3O)c12 (stereo not drawn) [Compound 228]	10 to 100	10 to 100		10 to 100	
N#Cc1cc(F)cc([C@H]2C[C@H](F)CN2C(=O)c2n[nH]c3ncnc(N[C@@H]4CCCC(F)(F)[C@H]4O)c23)c1 [Compound 230]	< 10		10 to 100		10 to 100

Second part, led by results:

IC50 (wild type NTRK1 enzyme) [nM]	IC50 [1] [nM]	IC50 ([1]; Homo sapiens, KM12, 72 h) [nM]	SMILES	IC50 [2] [nM]	IC50 ([2]; Homo sapiens, KM12, 72 h) [nM]
< 10	< 10		O=C(c1n[nH]c2ncnc(N[C@H]3[C@H](O)[C@H](O)[C@@H]4C[C@@H]43)c12)N1C[C@@H](F)C[C@@H]1c1cccc(F)c1F [Compound 189]	10 to 100	
< 10		10 to 100	COc1ncc(F)cc1[C@H]1C[C@H](F)CN1C(=O)c1n[nH]c2ncnc(N[C@@H]3CCOC[C@H]3O)c12 [Compound 190]		10 to 100
< 10	10 to 100		O=C(c1n[nH]c2ncnc(NC3CC[C@@H](O)C[C@H]3O)c12)N1C[C@@H](F)C[C@@H]1c1cc(F)ccc1F (stereo partly drawn) [Compound 191]	10 to 100	
10 to 100	< 10		O=C(c1n[nH]c2ncnc(N[C@@H]3C=C[C@@H](O)[C@H]3O)c12)N1C[C@@H](F)C[C@@H]1c1cc(F)cc(F)c1F [Compound 199]	< 10	
< 10		10 to 100	O=C(c1n[nH]c2ncnc(N[C@@H]3CCOC[C@H]3O)c12)N1C[C@@H](F)C[C@@H]1c1cc(F)cnc1Cl [Compound 202]		10 to 100
< 10		< 10	O=C(c1n[nH]c2ncnc(N[C@@H]3COCC[C@H]3O)c12)N1C[C@@H](F)C[C@@H]1c1cc(F)cc(F)c1F [Compound 204]		< 10
< 10	< 10		O=C(c1n[nH]c2ncnc(NC3CCOCC3O)c12)N1CC(F)CC1c1cc(F)cc(F)c1F (stereo not drawn) [Compound 205]	< 10	
10 to 100	10 to 100		O=C(c1n[nH]c2ncnc(NC3CC(F)CC3O)c12)N1CC(F)CC1c1cc(F)cnc1Cl (stereo not drawn) [Compound 207]	10 to 100	
< 10	10 to 100		CN(Cc1cc(F)ccc1C(F)(F)F)C(=O)c1n[nH]c2ncnc(NC3COCC(O)C3O)c12 (stereo not drawn) [Compound 209]	10 to 100	
< 10		< 10	N#C[C@H]1C[C@@H](O)[C@H](Nc2ncnc3[nH]nc(C(=O)N4C[C@@H](F)C[C@@H]4c4cc(F)cc(Cl)c4)c23)C1 [Compound 211]		< 10
< 10	< 10		COc1c(F)cc(F)cc1C1CC(F)CN1C(=O)c1n[nH]c2ncnc(NC3CCOCC3O)c12 (stereo not drawn) [Compound 218]	< 10	
< 10		10 to 100	O=C(c1n[nH]c2ncnc(N[C@@H]3COC[C@@H](O)[C@H]3O)c12)N1C[C@@H](F)C[C@@H]1c1cc(F)ccc1Cl [Compound 222]		10 to 100
< 10		< 10	O=C(c1n[nH]c2ncnc(N[C@@H]3CCC[C@@H](O)[C@H]3O)c12)N1C[C@@H](F)C[C@@H]1c1cc(F)cc(F)c1F [Compound 224]		< 10
< 10		< 10	O=C(c1n[nH]c2ncnc(N[C@@H]3CN(C4COC4)C[C@H]3O)c12)N1C[C@@H](F)C[C@@H]1c1cc(F)ccc1F [Compound 229, ((2R,4S)-2-(2,5-difluorophenyl)-4-fluoropyrrolidin-1-yl)(4-(((3R,4R)-4-hydroxy-1-(oxetan-3-yl)pyrrolidin-3-yl)amino)-1H-pyrazolo[3,4-d]pyrimidin-3-yl)methanone]		< 10
